Common to all, as to assay type: cell-based, human
One experiment has as its system BT474 cells. Put plainly: Cellular proliferation in BT474 cells (CellTiter Glo). As to conditions: Homo sapiens, BT-474, BT474 cells, 120 h, redosed after 72 h. The method, then: (§1) In addition to the engineered cell lines, the following cell lines were used: BT474 (human breast carcinoma), N87 (human gastric carcinoma), NCI-H1781 (human lung adenocarcinoma), and A431 (human epidermoid carcinoma); all cell lines were obtained from the American Type Culture Collection (ATCC, Manassas, VA). NCI-H1781 were grown in complete RPMI 1640 (Life Technologies, Carlsbad, CA) supplemented with 15% fetal bovine serum (FBS, Life Technologies, Carlsbad, CA) and 1% Penicillin-Streptomycin (P/S, Life Technologies, Carlsbad, CA). N87 cells were grown in complete RPMI 1640 supplemented with 10% FBS and 1% P/S. BT474 and A431 cells were grown in DMEM (Life Technologies, Carlsbad, CA) supplemented with 10% FBS and 1% P/S. All cells were maintained and propagated in a humidified 5% CO2 incubator at 37° C.
(§2) Cell proliferation in adherent cells was investigated in two HER2 amplified cell lines (BT474, N87), and a HER2VC expressing cell line (NCI-H1781). BT474, NCI-H1781, and N87 were plated in their appropriate growth media supplemented with either 10% FBS (BT474, N87) or 15% FBS (NCI-H1781) and 1% P/S in 96-well white clear-bottom tissue culture plates (Costar, Sigma-Aldrich). The starting cell densities were 3500, 5500, and 5000 cells for BT474, NCI-H1781, and N87 cells, respectively. An 8-point standard curve with varying cell densities (starting at 50000 cells and serially diluting down 2-fold) was prepared for each cell line and read 6 h after plating. Cells were allowed to attach overnight prior to compound treatment. Compound solutions were prepared by serially diluting test compounds in DMSO (Sigma-Aldrich), then diluting 500× in their corresponding serum free media. Cells were treated by adding a 1:1 volume of test compound to a final concentration of […], 0.004, 0.0014, or 0.0005 μM, in 0.1% DMSO and 5% FBS (for BT474 and N87) or 7.5% FBS (NCI-H1781). In BT474 and NCI-H1781, cell media was replaced and cells were redosed with fresh test compound solutions after 72 h. Viability was determined by CellTiter Glo (Promega, Madison, WI) after 72 h for N87 cells, and after 120 h for BT474 and […] cells. The results were converted to cell numbers using a standard curve; growth inhibition (GI50 values) were determined by Graph Pad Prism. […] The results are provided in Table 4, under columns titled “BT474-GI50”, “N87-GI50”, and “NCI-H1781-GI50”.
For orientation: In ATP-based viability assays light output follows the ATP content of the culture.

A further experiment has as its system N87 cells. Put plainly: Cellular proliferation in N87 cells (CellTiter Glo). The conditions noted are these: Homo sapiens, 72 h. How it is done: as §1, §2
The test system of a further experiment is NCI-H1781 cells. In words: Cellular proliferation in NCI-H1781 cells (CellTiter Glo). The conditions noted are these: Homo sapiens, 120 h, redosed after 72 h. How it is done:
as §1, §2

Drawing on patent US20240391931A1 (Bristol-Myers Squibb Company, priority 2021, published 2024), this text covers GI50 for 7 compounds.

For the compound `Cc1nc2cc(Oc3ccc(Nc4ncnc5sc6c(c45)CCN(C(=O)/C=C/CN(C)C)C6)cc3C)ccn2n1` [Compound 127, (E)-4-(dimethylamino)-1-(4-((3-methyl-4-((2-methyl-[1,2,4]triazolo[1,5-a]pyridin-7-yl)oxy)phenyl)amino)-5,6-dihydropyrido[4′,3′:4,5]thieno[2,3-d]pyrimidin-7(8H)-yl)but-2-en-1-one], the GI50 in the experiment with BT474 cells was less than 100 nM; in the experiment on N87 cells, less than 100 nM; with NCI-H1781 cells (NCI-H1781 cells), 100 to 350 nM.

Turning to `Cc1cc(Nc2ncnc3sc4c(c23)CCN(C(=O)/C=C/CN(C)C)C4)ccc1Oc1ccn2ccnc2c1` [Compound 126, (E)-4-(dimethylamino)-1-(4-((4-(imidazo[1,2-a]pyridin-7-yloxy)-3-methylphenyl)amino)-5,8-dihydropyrido[4′,3′:4,5]thieno[2,3-d]pyrimidin-7(6H)-yl)but-2-en-1-one], the GI50 in the experiment with BT474 cells, in the experiment on N87 cells and in the experiment on NCI-H1781 cells (NCI-H1781 cells) was less than 100 nM in each case.

In the case of `Cc1cc(Nc2ncnc3sc4c(c23)CN(C(=O)/C=C/CN(C)C)C4)ccc1Oc1ccn2ncnc2c1` [Compound 130, (E)-1-(4-((4-([1,2,4]Triazolo[1,5-a]pyridin-7-yloxy)-3-methylphenyl)amino)-5H-pyrrolo[3′,4′:4,5]thieno[2,3-d]pyrimidin-6(7H)-yl)-4-(dimethylamino)but-2-en-1-one], the GI50 in the experiment on BT474 cells was less than 100 nM; in the experiment on N87 cells, less than 100 nM; with NCI-H1781 cells (NCI-H1781, NCI-H1781 cells) it was less than 100 nM.

Consider `Cc1ccc(Oc2ccc(Nc3ncnc4sc5c(c34)CCN(C(=O)/C=C/CN3CC[C@H](F)C3)C5)cc2C)cn1` [Compound 124], for which the 50% growth inhibitory concentration (GI50) in the experiment with BT474 cells is less than 100 nM; in the experiment on N87 cells, less than 100 nM; with NCI-H1781 cells (NCI-H1781, NCI-H1781 cells), less than 100 nM.

Take `Cc1ccc(Oc2ccc(Nc3ncnc4sc5c(c34)CCN(C(=O)/C=C/CN3CC4CC4(CO)C3)C5)cc2C)cn1` (stereo not drawn) [Compound 118]: the GI50 in the experiment on BT474 cells is less than 100 nM; in the experiment with N87 cells, less than 100 nM; with NCI-H1781 cells (NCI-H1781, NCI-H1781 cells), less than 100 nM.

As to `Cc1ccc(Oc2ccc(Nc3ncnc4sc5c(c34)CN(C(=O)/C=C/CN(C)C)CC5)cc2C)cn1` [Compound 108, (E)-4-(Dimethylamino)-1-(4-((3-methyl-4-((6-methylpyridin-3-yl)oxy)phenyl)amino)-7,8-dihydropyrido[3′,4′:4,5]thieno[2,3-d]pyrimidin-6(5H)-yl)but-2-en-1-one], the GI50 in the experiment with BT474 cells is less than 100 nM; in the experiment with N87 cells, less than 100 nM; in the experiment on NCI-H1781 cells (NCI-H1781, NCI-H1781 cells), less than 100 nM.

Turning to `Cc1ccc(Oc2ccc(Nc3ncnc4sc5c(c34)CCN(C(=O)/C=C/CN3CCC(O)C(C)(C)C3)C5)cc2C)cn1` (stereo not drawn) [Compound 114], the GI50 was less than 100 nM in the experiment with BT474 cells; less than 100 nM in the experiment with N87 cells; less than 100 nM with NCI-H1781 cells (NCI-H1781, NCI-H1781 cells).

Broadly, the GI50 is the concentration that inhibits growth by half. A high value points to less potent growth inhibition.
